Assay [1] addresses wild type Kit (Homo sapiens (Human), UniProt P10721). The assay can be described thus: Kit wild type assay at Km (Caliper electrophoretic mobility shift). Conditions: wild type Kit 2 nM, 400 uM ATP (Km), 1 uM Srctide, 25 C, 90 minutes; read-out: INH-KITWT ENZ-KM IC50 (nM) (Num). The format is biochemical. As for the experimental part:
(§1) In order to assess the activity of chemical compounds against the relevant kinase of interest, the Caliper LifeSciences electrophoretic mobility shift technology platform is used. Fluorescently labeled substrate peptide is incubated in the presence of kinase and ATP so that a […] proportion of the peptide is phosphorylated. At the end of the reaction, the mix of phosphorylated (product) and non-phosphorylated (substrate) peptides are passed through the microfluidic system of the Caliper EZ Reader 2, under an applied potential difference. The presence of the phosphate group on the product peptide provides a difference in mass and charge between those of the substrate peptide, resulting in a separation of the substrate and product pools in the sample. As the pools pass a LEDS within the instrument, these pools are detected and resolved as separate peaks. The ratio between these peaks therefore reflects the activity of the chemical matter at that concentration in that well, under those conditions.
(§2) The reaction was stopped by the addition of 70 ul of Stop buffer (100 mM HEPES pH 7.5, 0.015% Brij 35, 35 mM EDTA and 0.2% of Coating Reagent 3 (Caliper Lifesciences)). The plate was then read on a Caliper EZReader 2 (protocol settings: −1.9 psi, upstream voltage −700, downstream voltage −3000, post sample sip 35 s).

Assay [2] concerns the target D816V Kit (Homo sapiens (Human), UniProt P10721, D816V). The assay can be described thus: Kit D816V assay at Km (Caliper electrophoretic mobility shift). The settings on record: for IC50: D816V Kit 0.5 nM, 15 uM ATP (Km), 1 uM Srctide, 25 C, 90 minutes, read-out: INH-KITD816V ENZ-KM IC50 (nM) (Num); for times more potent against the D816V mutant than against the wild-type Kit: D816V Kit versus wild-type Kit, enzyme assays at Km. It counts as biochemical. The method, then:
as §1, §2

The structures appear in SMILES notation. Bounds are passed on as bounds.

Chain of wild type Kit (P10721 26-976): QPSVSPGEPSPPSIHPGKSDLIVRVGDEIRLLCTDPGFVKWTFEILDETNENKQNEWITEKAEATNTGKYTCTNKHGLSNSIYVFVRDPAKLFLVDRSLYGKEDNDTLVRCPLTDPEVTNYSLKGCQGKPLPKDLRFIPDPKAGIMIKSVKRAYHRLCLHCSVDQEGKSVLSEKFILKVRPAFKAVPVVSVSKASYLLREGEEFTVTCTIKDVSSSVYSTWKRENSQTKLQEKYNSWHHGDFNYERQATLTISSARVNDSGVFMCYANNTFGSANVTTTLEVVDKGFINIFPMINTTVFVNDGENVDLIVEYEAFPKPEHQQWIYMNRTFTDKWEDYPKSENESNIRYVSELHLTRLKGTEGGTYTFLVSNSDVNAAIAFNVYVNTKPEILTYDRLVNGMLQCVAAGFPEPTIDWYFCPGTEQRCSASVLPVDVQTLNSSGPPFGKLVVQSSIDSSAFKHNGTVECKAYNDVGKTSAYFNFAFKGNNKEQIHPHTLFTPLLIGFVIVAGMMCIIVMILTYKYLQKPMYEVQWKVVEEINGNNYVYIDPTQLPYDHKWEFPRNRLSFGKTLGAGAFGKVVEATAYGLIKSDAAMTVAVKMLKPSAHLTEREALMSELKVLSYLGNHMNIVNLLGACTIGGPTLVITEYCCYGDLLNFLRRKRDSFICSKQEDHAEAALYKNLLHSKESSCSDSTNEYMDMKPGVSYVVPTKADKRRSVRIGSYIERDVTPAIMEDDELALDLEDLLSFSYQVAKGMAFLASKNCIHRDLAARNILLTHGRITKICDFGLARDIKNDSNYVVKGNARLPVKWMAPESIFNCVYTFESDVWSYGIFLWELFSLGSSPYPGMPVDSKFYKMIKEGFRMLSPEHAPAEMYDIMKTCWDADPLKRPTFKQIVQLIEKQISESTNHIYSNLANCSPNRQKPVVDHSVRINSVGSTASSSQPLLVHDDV
Chain of D816V Kit (P10721 26-976 D816V): as the sequence (P10721 26-976) above, with D791V counted along it

Consider `COc1cc2ncnc(N3CCN(c4ncc(Cc5ccccc5)cn4)CC3)c2cc1OCC1CN(C)C1` [Compound 90], for which the results for the concentration for half-maximal inhibition (IC50) in assay [1] and in assay [2] were 11 to 100 nM and less than 1 nM, respectively.
On to `COc1cc2ncnc(N3CCN(c4ncc(CCc5ccccc5)cn4)CC3)c2cc1OC` [Compound 24], for which the IC50 (commonly the midpoint of a concentration-inhibition curve) in assay [1] was in the range of 100 to 1000 nM; in assay [2] it was 1.01 to 10 nM.
On to `COc1cc2ncnc(N3CCN(c4ncc(OCC5CC5)cn4)CC3)c2cc1OC` [Compound 6], for which the IC50 in assay [1] was greater than 1000 nM; in assay [2], greater than 100 nM.
Consider `CCOc1cc2ncnc(N3CCN(c4ncc(Cc5ccccc5)cn4)CC3)c2cc1OCC1CCN(C)CC1` [Compound 122], for which the IC50 is less than 10 nM in assay [1] and less than 1 nM in assay [2].
For the compound `CN1CCC(COc2ccc3ncnc(N4CCN(c5ncc(Cc6ccccc6)c(N)n5)CC4)c3c2)CC1` [Compound 95], the IC50 in assay [1] was in the range of 11 to 100 nM; in assay [2], 1.01 to 10 nM.
The matching figures for `COc1cc2ncnc(N3CCN(c4ncc(OCc5ccc(F)cc5)cn4)CC3)c2cc1OC` [Compound 69]: 100 to 1000 nM and 10 to 100 nM.
Turning to `COc1cc2ncnc(N3CCN(c4ncc(Nc5ccc(C#N)cc5)cn4)CC3)c2cc1OC` [Compound 47], the concentration for half-maximal inhibition (IC50) in assay [1] is greater than 1000 nM. Besides, in assay [2], the IC50 lay within 10 to 100 nM and the “times more potent against the D816V mutant than against the wild-type Kit” value (“times more potent” below) is listed as “at least 100 times”.
On to `COc1cc2ncnc(N3CCN(c4ncc(Cc5ccccc5)cn4)CC3)c2cc1OC1CCN(CCO)C1` (stereo not drawn) [Compound 118], for which the figures for the half-maximal inhibitory concentration (IC50) in assay [1] and in assay [2] were 11 to 100 nM and 1.01 to 10 nM, respectively.
Regarding `COc1cc2ncnc(N3CCN(c4ncc(OCc5ccc(C(C)(C)C)cc5)cn4)CC3)c2cc1OC` [Compound 94], the IC50 is greater than 1000 nM in assay [1] and greater than 100 nM in assay [2].
For the compound `CCOc1cc2ncnc(N3CCN(c4ncc(Cc5ccccc5)c(=O)[nH]4)CC3)c2cc1OCC1CCN(C)CC1` [Compound 138], the IC50 in assay [1] was less than 10 nM. Besides, in assay [2], the concentration for half-maximal inhibition (IC50) was less than 1 nM and the “times more potent” value was “less than 5 times”.
For the compound `COc1cc2ncnc(N3CCN(c4ncc(Cc5ccccc5)cn4)CC3)c2cc1OCC1CCCN(C)C1` (stereo not drawn) [Compound 114], the results for the IC50 in assay [1] and in assay [2] were 11 to 100 nM and less than 1 nM, respectively.
As to `COc1cc2ncnc(N3CCN(c4ncc(OCc5ccccc5C)cn4)CC3)c2cc1OC` [Compound 65], the IC50 in assay [1] was greater than 1000 nM; in assay [2], 10 to 100 nM.
With `COc1cc2ncnc(N3CCN(c4ncc(Cc5cccc(C#N)c5)cn4)CC3)c2cc1OC` [Compound 46], the IC50 in assay [1] lay within 100 to 1000 nM; in assay [2], 10 to 100 nM.
With `COc1cc2ncnc(N3CCN(c4ncc(Cc5ccccc5)cn4)CC3)c2cc1OC1CCN(CCO)CC1` [Compound 129], the IC50 in assay [1] lay in the range of 11 to 100 nM. Also, in assay [2], the IC50 was 1.01 to 10 nM and the “times more potent” value is on record as “less than 5 times”.
For the compound `COc1cc2ncnc(N3CCN(c4ncc(Nc5ccc(F)cc5)cn4)CC3)c2cc1OCC1CCN(C)CC1` [Compound 132], the results for the IC50 in assay [1] and in assay [2] were 11 to 100 nM and 1.01 to 10 nM, respectively.
As to `COc1cc2ncnc(N3CCN(c4ncc(OCc5ccc(C#N)cc5)cn4)CC3)c2cc1OC` [Compound 73], the results for the concentration for half-maximal inhibition (IC50) in assay [1] and in assay [2] were greater than 1000 nM and greater than 100 nM, respectively. Further, in assay [2], the “times more potent” value was “at least 100 times”.
The like results for `COc1cc2ncnc(N3CCN(c4ncc(Cc5ccccc5)cn4)CC3)c2cc1C(N)=O` [Compound 20] were, in that order, greater than 1000 nM, 10 to 100 nM and “at least 100 times”.
For `COc1cc2ncnc(N3CCN(c4ncc(OCc5ccccc5)cn4)C(C)C3)c2cc1OC` (stereo not drawn) [Compound 66], the IC50 in assay [1] was greater than 1000 nM; in assay [2], 10 to 100 nM.
On to `COc1cc2ncnc(N3CCN(c4ncc(Cc5ccccc5)cn4)CC3)c2cc1OCC1CCN(CCO)CC1` [Compound 139], for which the IC50 was 11 to 100 nM in assay [1] and 1.01 to 10 nM in assay [2].
Turning to `COc1cc2ncnc(N3CCN(c4ncc(OCc5ccsc5)cn4)CC3)c2cc1OC` [Compound 44], the IC50 was 100 to 1000 nM in assay [1] and 10 to 100 nM in assay [2].
